Assay results published in publication PMC10449877, “Structural basis of peptidoglycan synthesis by E. coli RodA-PBP2 complex” (Nature Communications, 2023).

B1: E. coli RodA (enzyme, UniProt P0ABG7 1-370, looked up)
chain: MTDNPNKKTFWDKVHLDPTMLLILLALLVYSALVIWSASGQDIGMMERKIGQIAMGLVIMVVMAQIPPRVYEGWAPYLYIICIILLVAVDAFGAISKGAQRWLDLGIVRFQPSEIAKIAVPLMVARFINRDVCPPSLKNTGIALVLIFMPTLLVAAQPDLGTSILVALSGLFVLFLSGLSWRLIGVAVVLVAAFIPILWFFLMHDYQRQRVMMLLDPESDPLGAGYHIIQSKIAIGSGGLRGKGWLHGTQSQLEFLPERHTDFIFAVLAEELGLVGILILLALYILLIMRGLWIAARAQTTFGRVMAGGLMLILFVYVFVNIGMVSGILPVVGVPLPLVSYGGSALIVLMAGFGIVMSIHTHRKMLSKSV
notes: RodA, Escherichia coli str; K-12 substr; MG1655; UniProt ID printed as '0ABG7'; residues 9-93 and 109-364 built in the map; They are written as two molecules for the pair row; No TEV cleavage is described; also called SEDS glycosyltransferase (GT); RodA part of the RodA-PBP2 fusion; source: E. coli BL21(DE3) pLysS, purified (Ni-NTA, SEC), reconstituted in POPG / MSP1E3D1 nanodiscs

How the values were obtained:
[1] = target: T1, E. coli RodA-PBP2 fusion (PBP2 TP domain) (Escherichia coli, UniProt P0AD65); assay: fluorescent bocillin labelling, SDS-PAGE; assay type: binding; conditions: covalent; TP active site of PBP2; labelled compound; 15 min
T1 construct: gene mrdA; with Peptidoglycan glycosyltransferase MrdB
T1 sequence (P0AD65 1-633): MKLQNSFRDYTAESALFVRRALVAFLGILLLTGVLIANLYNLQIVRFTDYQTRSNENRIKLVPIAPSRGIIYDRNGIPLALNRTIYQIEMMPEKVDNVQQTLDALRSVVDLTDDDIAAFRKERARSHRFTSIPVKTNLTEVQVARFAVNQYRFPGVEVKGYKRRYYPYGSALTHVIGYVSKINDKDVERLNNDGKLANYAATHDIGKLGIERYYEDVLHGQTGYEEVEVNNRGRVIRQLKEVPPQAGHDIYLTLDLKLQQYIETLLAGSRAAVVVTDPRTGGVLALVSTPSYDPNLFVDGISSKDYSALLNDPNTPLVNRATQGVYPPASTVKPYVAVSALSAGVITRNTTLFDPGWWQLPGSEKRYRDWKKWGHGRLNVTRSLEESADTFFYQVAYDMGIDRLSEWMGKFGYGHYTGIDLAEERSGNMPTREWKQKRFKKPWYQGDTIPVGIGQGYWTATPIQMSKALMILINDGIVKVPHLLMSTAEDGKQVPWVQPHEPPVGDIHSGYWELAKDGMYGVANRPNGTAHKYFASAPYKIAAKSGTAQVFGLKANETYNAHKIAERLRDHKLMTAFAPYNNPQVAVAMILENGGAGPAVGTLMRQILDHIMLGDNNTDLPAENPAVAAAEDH
T1 sequence (P0ABG7 1-370 partner): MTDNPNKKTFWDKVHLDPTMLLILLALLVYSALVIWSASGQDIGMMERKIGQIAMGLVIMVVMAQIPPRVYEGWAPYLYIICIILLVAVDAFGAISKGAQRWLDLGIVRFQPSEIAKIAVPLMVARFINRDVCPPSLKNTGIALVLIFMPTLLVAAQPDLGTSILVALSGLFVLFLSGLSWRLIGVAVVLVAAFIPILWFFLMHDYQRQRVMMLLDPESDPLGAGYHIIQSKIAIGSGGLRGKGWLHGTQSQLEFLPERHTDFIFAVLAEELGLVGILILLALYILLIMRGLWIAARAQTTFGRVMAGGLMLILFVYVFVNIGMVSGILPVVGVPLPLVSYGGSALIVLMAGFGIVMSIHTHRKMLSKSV

[2] = target: T2, E. coli PBP2 (Escherichia coli str. K-12 substr. …, UniProt P0AD65 1-633); assay: cryo-EM structure; single-particle cryo-EM of the RodA-PBP2 fusion (one chain, TSGSGSGS linker) in POPG / MSP1E3D1 nanodiscs; 20 mM HEPES pH 7, 150 mM NaCl, 1 mM TCEP; 0.66 mg/ml (5.9 uM); conditions: both partners purified
T2 construct: K-12 substr; MG1655, UniProt P0AD65; residues 10-343, 401-430, 457-540 and 569-612 built in the map; PBP2 Gln99 is residue 476 in the fusion; the poly-histidine tag of the fusion is written on m1; also called transpeptidase (TP); source: E. coli BL21(DE3) pLysS, purified (Ni-NTA, SEC), reconstituted in POPG / MSP1E3D1 nanodiscs
T2 sequence (looked up): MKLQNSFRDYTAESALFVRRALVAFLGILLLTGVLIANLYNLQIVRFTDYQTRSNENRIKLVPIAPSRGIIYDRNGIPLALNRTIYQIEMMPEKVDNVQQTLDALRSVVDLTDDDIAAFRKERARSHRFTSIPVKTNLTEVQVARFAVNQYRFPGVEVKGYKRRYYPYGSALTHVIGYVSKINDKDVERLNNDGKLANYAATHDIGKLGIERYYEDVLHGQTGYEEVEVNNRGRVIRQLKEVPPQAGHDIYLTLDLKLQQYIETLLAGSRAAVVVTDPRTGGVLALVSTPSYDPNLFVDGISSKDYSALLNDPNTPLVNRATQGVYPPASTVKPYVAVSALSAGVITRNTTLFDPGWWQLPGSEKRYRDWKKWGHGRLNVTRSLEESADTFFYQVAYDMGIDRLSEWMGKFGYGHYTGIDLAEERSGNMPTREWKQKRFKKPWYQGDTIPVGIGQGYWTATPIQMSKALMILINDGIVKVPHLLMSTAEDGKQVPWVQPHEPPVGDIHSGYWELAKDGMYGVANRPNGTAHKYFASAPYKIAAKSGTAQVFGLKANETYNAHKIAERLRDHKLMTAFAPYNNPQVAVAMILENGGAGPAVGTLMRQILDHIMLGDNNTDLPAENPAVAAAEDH

Row | Molecule | fluorescent bocillin labelling, SDS-PAGE [1] | binding result [2]
1 | Cc1cc(C)n2c1C=C1C=CC(CCC(=O)Nc3ccc(OCC(=O)N[C@@H]4C(=O)N5[C@@H]4SC(C)(C)[C@@H]5C(=O)O)cc3)=[N+]1[B-]2(F)F [bocillin] | The TP domain binds (and is covalently modified by) a fluorescent penicillin mimic bocillin | –
2 | B1 | – | binds
